# Laboratory results published in patent US10730870B2, “Compounds and methods for the enhanced degradation of targeted proteins” (Arvinas, Inc., priority 2015, dated 2020).
# pIC50: −log10 of the molar value.
# Target: VHL (Homo sapiens (Human), UniProt P40337)
# Test: VHL fluorescence polarization (FP) competition assay
# Type: binding
SMILES,pIC50 (1% in DMSO),pIC50 (10% in DMSO),pIC50 (0.25% in DMSO),VHL FP Assay IC50 (1% in DMSO),VHL FP Assay IC50 (10% in DMSO)
"Cc1ncsc1-c1ccc(CNC(=O)[C@@H]2C[C@@H](O)CN2C(=O)[C@@H](NC(=O)CCc2ccccc2)C(C)(C)C)cc1 [Example 44, (2S,4R)-1-((S)-3,3-dimethyl-2-(3-phenylpropanamido)butanoyl)-4-hydroxy-N-(4-(4-methylthiazol-5-yl)benzyl)pyrrolidine-2-carboxamide]",6.41,6.33,–,–,–
"Cc1ncsc1-c1ccc(CNC(=O)[C@@H]2C[C@@H](O)CN2C(=O)[C@H](C(C)C)N2Cc3cccc(Cl)c3C2=O)cc1 [Example 7, (2S,4R)-1-((S)-2-(7-cloro-1-oxoisoindolin-2-yl)-3-methylbutanoyl)-4-hydroxy-N-(4-(4-methylthiazol-5-yl)benzyl)pyrrolidine-2-carboxamide]",5.12,5.07,–,–,–
"Cc1ncsc1-c1ccc(CNC(=O)[C@@H]2C[C@@H](O)CN2C(=O)[C@H](C(C)C)N2Cc3cccc(F)c3C2=O)cc1 [Example 8, (2S,4R)-1-((S)-2-(7-fluoro-1-oxoisoindolin-2-yl)-3-methylbutanoyl)-4-hydroxy-N-(4-(4-methylthiazol-5-yl)benzyl)pyrrolidine-2-carboxamide]",6.21,5.88,5.52,–,–
"CSC[C@@H](C(=O)N1C[C@H](O)C[C@H]1C(=O)NCc1ccc(-c2scnc2C)cc1)N1Cc2ccccc2C1=O [Example 37, (2S,4R)-4-hydroxy-N-(4-(4-methylthiazol-5-yl)benzyl)-1-((R)-3-(methylthio)-2-(1-oxoisoindolin-2-yl)propanoyl)pyrrolidine-2-carboxamide]",4.69,5.13,5.72,–,–
"Cc1ncsc1-c1ccc(CNC(=O)[C@@H]2C[C@@H](O)CN2C(=O)[C@H](C(C)C)N2Cc3cc(C#N)ccc3C2=O)cc1 [Example 34, (2S,4R)-1-((S)-2-(5-cyano-1-oxoisoindolin-2-yl)-3-methylbutanoyl)-4-hydroxy-N-(4-(4-methylthiazol-5-yl)benzyl)pyrrolidine-2-carboxamide]",6.18,5.93,5.67,–,–
"Cc1ncsc1-c1ccc(CNC(=O)[C@@H]2C[C@@H](O)CN2C(=O)[C@H](CS)N2Cc3ccccc3C2=O)cc1 [Example 48, (2S,4R)-4-hydroxy-1-((R)-3-mercapto-2-(1-oxoisoindolin-2-yl)propanoyl)-N-(4-(4-methylthiazol-5-yl)benzyl)pyrrolidine-2-carboxamide]",5.42,5.33,–,–,–
"Cc1ncsc1-c1ccc(CNC(=O)[C@@H]2C[C@@H](O)CN2C(=O)[C@H](C2CCCC2)N2Cc3ccccc3C2=O)cc1 [Example 38, (2S,4R)-1-((S)-2-cyclopentyl-2-(1-oxoisoindolin-2-yl)acetyl)-4-hydroxy-N-(4-(4-methylthiazol-5-yl)benzyl)pyrrolidine-2-carboxamide]",6.12,5.96,5.66,–,–
"Cc1ncsc1-c1ccc(CNC(=O)[C@@H]2C[C@@H](O)CN2C(=O)[C@H](c2cccs2)N2Cc3ccccc3C2=O)cc1 [Example 58, (2S,4R)-4-hydroxy-N-(4-(4-methylthiazol-5-yl)benzyl)-1-((R)-2-(1-oxoisoindolin-2-yl)-2-(thiophen-2-yl)acetyl)pyrrolidine-2-carboxamide]",4.49,4.58,–,–,–
"COc1cccc(C(=O)N2C[C@H](O)CC2(C)C(=O)NCc2ccc(-c3scnc3C)cc2)c1 (stereo partly drawn) [Example 66, (4R)-4-hydroxy-1-(3-methoxybenzoyl)-2-methyl-N-(4-(4-methylthiazol-5-yl)benzyl)pyrrolidine-2-carboxamide]",–,–,–,Not Active,Not Active
"Cc1ncsc1-c1ccc(CNC(=O)[C@@H]2C[C@@H](O)CN2C(=O)[C@H](C(C)C)N2Cc3ccccc3C2=O)cc1 [Example 6, (2S,4R)-4-hydroxy-1-((S)-3-methyl-2-(1-oxoisoindolin-2-yl)butanoyl)-N-(4-(4-methylthiazol-5-yl)benzyl)pyrrolidine-2-carboxamide]",6.16,5.83,5.20,–,–
"Cc1ncsc1-c1ccc(CNC(=O)[C@@H]2C[C@@H](O)CN2C(=O)[C@H](C(C)C)N2Cc3c(Br)cccc3C2=O)cc1 [Example 26, (2S,4R)-1-((S)-2-(4-bromo-1-oxoisoindolin-2-yl)-3-methylbutanoyl)-4-hydroxy-N-(4-(4-methylthiazol-5-yl)benzyl)pyrrolidine-2-carboxamide]",6.03,6.36,5.53,–,–
"COCCCc1ccc2c(c1)CN([C@H](C(=O)N1C[C@H](O)C[C@H]1C(=O)NCc1ccc(-c3scnc3C)cc1)C(C)C)C2=O [Example 57, (2S,4R)-4-hydroxy-1-((S)-2-(5-(3-methoxypropyl)-1-oxoisoindolin-2-yl)-3-methylbutanoyl)-N-(4-(4-methylthiazol-5-yl)benzyl)pyrrolidine-2-carboxamide]",6.14,5.85,–,–,–
"CC(=O)N[C@H](C(=O)N1C[C@H](O)C[C@H]1C(=O)NCc1ccc(-c2scnc2C)cc1)C(C)C [Example 69, (2S,4R)-1-((S)-2-acetamido-3-methylbutanoyl)-4-hydroxy-N-(4-(4-methylthiazol-5-yl)benzyl)pyrrolidine-2-carboxamide]",5.84,5.37,–,–,–

# The remaining lines, values ahead:
pIC50 (1% in DMSO),pIC50 (10% in DMSO),pIC50 (0.25% in DMSO),VHL FP Assay IC50 (1% in DMSO),VHL FP Assay IC50 (10% in DMSO),SMILES
6.38,–,–,–,–,"Cc1ncsc1-c1ccc(CNC(=O)[C@@H]2C[C@@H](O)CN2C(=O)[C@H](C(C)C)N2Cc3ncccc3C2=O)cc1 [Example 99, (2S,4R)-4-hydroxy-1-((S)-3-methyl-2-(5-oxo-5H-pyrrolo[3,4-b]pyridin-6(7H)-yl)butanoyl)-N-(4-(4-methylthiazol-5-yl)benzyl)pyrrolidine-2-carboxamide]"
< 5.00,–,–,–,–,"CC(C)[C@@H](C(=O)N1C[C@H](O)C[C@H]1C(=O)NCc1ccc(C2CC2)cc1)N1Cc2ccccc2C1=O [Example 113, (2S,4R)—N-(4-cyclopropylbenzyl)-4-hydroxy-1-((S)-3-methyl-2-(1-oxoisoindolin-2-yl)butanoyl)pyrrolidine-2-carboxamide]"
< 4.00,–,–,–,–,"Cc1ncsc1-c1ccc(CNC[C@@H]2C[C@@H](O)CN2C(=O)[C@H](C(C)C)N2Cc3ccccc3C2=O)cc1 [Example 121, 2-((S)-1-((2S,4R)-4-hydroxy-2-((4-(4-methylthiazol-5-yl)benzylamino)methyl)pyrrolidin-1-yl)-3-methyl-1-oxobutan-2-yl)isoindolin-1-one]"
–,–,–,Not Active,–,"Cc1ncsc1-c1ccc(CNC(=O)[C@@H]2C[C@@H](S)CN2C(=O)[C@H](C(C)C)N2Cc3ccccc3C2=O)cc1 [Example 119, (2S,4R)-4-mercapto-1-((S)-3-methyl-2-(1-oxoisoindolin-2-yl)butanoyl)-N-(4-(4-methylthiazol-5-yl)benzyl)pyrrolidine-2-carboxamide]"
5.84,–,–,–,–,"CC(C)[C@@H](C(=O)N1C[C@H](O)C[C@H]1C(=O)NCc1ccc(-c2cncs2)cc1)N1Cc2ccccc2C1=O [Example 97, (2S,4R)-4-hydroxy-1-((S)-3-methyl-2-(1-oxoisoindolin-2-yl)butanoyl)-N-(4-(thiazol-5-yl)benzyl)pyrrolidine-2-carboxamide]"
4.47,–,–,–,–,"Cc1ncn(C)c1-c1ccc(CNC(=O)[C@@H]2C[C@@H](O)CN2C(=O)[C@H](C(C)C)N2Cc3ccccc3C2=O)cc1 [Example 103, (2S,4R)—N-(4-(1,4-dimethyl-1H-imidazol-5-yl)benzyl)-4-hydroxy-1-((S)-3-methyl-2-(1-oxoisoindolin-2-yl)butanoyl)pyrrolidine-2-carboxamide]"
5.01,–,–,–,–,"CC(C)[C@@H](C(=O)N1C[C@H](O)C[C@H]1C(=O)NCc1ccc(-c2cnn[nH]2)cc1)N1Cc2ccccc2C1=O [Example 100, (2S,4R)—N-(4-(1H-1,2,3-triazol-5-yl)benzyl)-4-hydroxy-1-((S)-3-methyl-2-(1-oxoisoindolin-2-yl)butanoyl)pyrrolidine-2-carboxamide]"
4.63,–,–,–,–,"COc1ccc(C)c(C(=O)N2C[C@H](O)C[C@H]2C(=O)NCc2ccc(-c3scnc3C)cc2)c1 [Example 95, (2S,4R)-4-hydroxy-1-(5-methoxy-2-methylbenzoyl)-N-(4-(4-methylthiazol-5-yl)benzyl)pyrrolidine-2-carboxamide]"
4.33,–,–,–,–,"CC(C)[C@@H](C(=O)N1C[C@H](O)C[C@H]1C(=O)NCc1ccc(C2CCC2)cc1)N1Cc2ccccc2C1=O [Example 114, (2S,4R)—N-(4-cyclobutylbenzyl)-4-hydroxy-1-((S)-3-methyl-2-(1-oxoisoindolin-2-yl)butanoyl)pyrrolidine-2-carboxamide]"
< 4.31,3.43,–,–,–,"COc1ccc(CNC(=O)[C@@H]2C[C@@H](O)CN2C(=O)[C@H](C(C)C)N2Cc3ccccc3C2=O)cc1 [Example 81, (2S,4R)-4-hydroxy-N-(4-methoxybenzyl)-1-((S)-3-methyl-2-(1-oxoisoindolin-2-yl)butanoyl)pyrrolidine-2-carboxamide]"
5.79,–,–,–,–,"Cc1ncsc1-c1ccc(CNC(=O)[C@@H]2C[C@@H](O)CN2C(=O)[C@@H](NC(=O)CN)C(C)(C)C)cc1 [Example 125, (2S,4R)-1-((S)-2-(2-aminoacetamido)-3,3-dimethylbutanoyl)-4-hydroxy-N-(4-(4-methylthiazol-5-yl)benzyl)pyrrolidine-2-carboxamide]"
5.38,–,–,–,–,"Cc1ncsc1-c1ccc(CNC(=O)[C@@H]2C[C@@H](O)CN2C(=O)[C@H](C(C)C)N2CCCC2=O)cc1 [Example 98, (2S,4R)-4-hydroxy-1-((S)-3-methyl-2-(2-oxopyrrolidin-1-yl)butanoyl)-N-(4-(4-methylthiazol-5-yl)benzyl)pyrrolidine-2-carboxamide]"
5.36,–,–,–,–,"CC(C)[C@@H](C(=O)N1C[C@H](O)C[C@H]1C(=O)NCc1ccc(-c2ncon2)cc1)N1Cc2ccccc2C1=O [Example 101, (2S,4R)—N-(4-(1,2,4-oxadiazol-3-yl)benzyl)-4-hydroxy-1-((S)-3-methyl-2-(1-oxoisoindolin-2-yl)butanoyl)pyrrolidine-2-carboxamide]"
6.20,6.49,–,–,–,"COc1ccccc1CCC(=O)N[C@H](C(=O)N1C[C@H](O)C[C@H]1C(=O)NCc1ccc(-c2scnc2C)cc1)C(C)(C)C [Example 83, (2S,4R)-4-hydroxy-1-((S)-2-(3-(2-methoxyphenyl)propanamido)-3,3-dimethylbutanoyl)-N-(4-(4-methylthiazol-5-yl)benzyl)pyrrolidine-2-carboxamide]"
